From US11999677B2, “Benzylamino-oxoethyl benzamide analogs and methods of use” (The Board of Regents of the University of Oklahoma, priority 2018, dated 2024)
Entries after “also recorded” stand apart in the source; their conditions may differ. Where two headings read alike, the source gives them in different places.

Assays:
[1] = Solubility assay: turbidity in water, absorbance at 620 nm; format: physicochemical; settings: pure H2O with 1% DMSO, 37° C., 1-2 h shaking, absorbance 620 nm; compared with compound 1
Description: Aqueous solubility was assessed as the degree of turbidity of compound in aqueous solutions, detected by absorbance at 620 nm. Higher turbidity indicated lower solubility. The experiments were performed in triplicate, with the results as the means±SD of triplicate wells.
Each compound was prepared at concentrations from 40 mM to 0.1 mM in DMSO in a serial-dilution manner. 2 μL of each of the above compound solutions was then dispensed directly to ˜198 μL of pure H2O in a 96-well white clear bottom microplate. Resulting solutions were shaken at 37° C. temperature 1-2 h on a rotary shaker at varying shaking rates to reach equilibrium solubility. The turbidity of the solution was measured using UV-visible spectrophotometry at 620 nm.
We investigated whether the compounds of the present disclosure have improved aqueous solubility. Using a thermodynamic turbidimetric assay we evaluated the aqueous solubility of several of the newly synthesized compounds.

pancreatic β-cells = settings: cited from earlier work
INS-1 cells = test: Cell viability assay: INS-1 β-cells co-treated with compound and tunicamycin (Tm), CellTiter-Glo intracellular ATP; format: cell-based, rat; settings: for Max Activity (%) / Emax: % rescue from Tm (0.15 μg/mL)-induced reduction of INS-1 cell viability, intracellular ATP, 72 h, Tm alone = 0%, DMSO control without Tm = 100%; for EC50: ten 2-fold serial titration points, triplicate, read-out: EC50 (μM), concentration that reaches half-maximal activity for INS-1 cell viability; for Emax: INS1, 72 h, read-out: Max Activity (%); for β-cell protective activity against Tm (in words): INS-1 cells in the presence of Tm
Description: INS-1 cells were cultured in RPMI 1640 medium (Corning) supplemented with 10% FBS (Atlanta Biologicals), 10 mM HEPES (Gibco-Life Technologies), 1 mM sodium pyruvate (Corning), 50 μM 2-mercaptoethanol (Sigma-Aldrich), and antibiotics (100 UI/mL penicillin and 100 µg/mL streptomycin; Corning) and maintained in a humidified 5% CO2 atmosphere at 37° C.
INS-1 cells were resuspended in RPMI 1640 medium containing 10% FBS and plated at 5×10^3 cells/(40 μL.well) into white clear bottom 384-well plates (Greiner) using an automated liquid handler (Biotek). After 24 h incubation at 37° C., library compounds were added to the wells at the indicated concentration using a pin-transfer robot (PerkinElmer). Tunicamycin (Tm) in RPMI 1640 medium containing 10% FBS was then added at a final concentration of 0.15 μg/mL. After 72 h, the medium was removed and 20 μL of CellTiter-Glo reagent which measures intracellular ATP levels as an indicator of viability (Promega) was added. Luminescence was measured 10 min later using an Envision plate reader (PerkinElmer).
We designed and synthesized novel benzylamino-oxoethyl benzamide analogs (5a-q, Table 1) and studied their effects on β-cell protection against ER stress. The analogs were tested for the viability of rat INS-1 β-cells in the presence of Tm, a potent ER stress inducer that inhibits N-linked glycosylation of proteins. The maximum activities and the concentrations that reach half-maximal activity (EC50) of the compounds were evaluated by the degree of increase in viability of INS-1 cells co-treated with the compounds in the presence of Tm compared with Tm treatment alone.

[2] = Rattus norvegicus, INS1, INS-1 cells with Tm 0.15 μg/mL

Row | aqueous solubility (turbidimetric, in words) [1] | SMILES | protective activity for pancreatic β-cells against ER stress (previously shown) (pancreatic β-cells) | Max Activity (%) (INS-1 cells) | EC50 (INS-1 cells; INS-1 cells with Tm 0.15 μg/mL) | Emax (INS-1 cells; Rattus norvegicus) | EC50 (INS-1 cells; [2]) | β-cell protective activity against Tm (in words) (INS-1 cells)
1 |  | Cc1ccc(C)c(CNC(=O)CNC(=O)c2cccc(Cl)c2C)c1 [Compound 5a, 3-Chloro-N-(2-((2,5-dimethylbenzyl)amino)-2-oxoethyl)-2-methylbenzamide] |  | 45% | 18 ± 4 µM | 45% | 18.6 µM | 
2 |  | Cc1c(Cl)cccc1C(=O)NCC(=O)NCc1ccccn1 [Compound 5b, 3-Chloro-2-methyl-N-(2-oxo-2-((pyridin-2-ylmethyl)amino)ethyl)benzamide] |  | 16% |  | 16% | 38 ± 9 µM | 
3 |  | Cc1c(Cl)cccc1C(=O)NCC(=O)Nc1ccc2nc[nH]c2c1 [Compound 5c, N-(2-((1H-benzo[d]imidazol-6-yl)amino)-2-oxoethyl)-3-chloro-2-methylbenzamide] |  |  |  | 0% |  | 
4 |  | COc1ccc(CNC(=O)CNC(=O)c2cccc(Cl)c2C)cc1 [Compound 5d, 3-Chloro-N-(2-((4-methoxybenzyl)amino)-2-oxoethyl)-2-methylbenzamide] |  | 55% |  | 41 to 55% | 32 ± 7 µM | 
5 |  | Cc1c(Cl)cccc1C(=O)NCC(=O)NCc1ccc(S(N)(=O)=O)cc1 [Compound 5e, 3-Chloro-2-methyl-N-(2-oxo-2-((4-sulfamoylbenzyl)amino)ethyl)benzamide] |  | 52% |  | 41 to 55% | 40 ± 12 µM | 
6 |  | Cc1c(Cl)cccc1C(=O)NCC(=O)NCCc1ccc(O)cc1 [Compound 5f, 3-Chloro-N-(2-((4-hydroxyphenethyl)amino)-2-oxoethyl)-2-methylbenzamide] |  | 41% |  | 41 to 55% | 34 ± 8 µM | 
7 | improved water solubility | Cc1c(Cl)cccc1C(=O)NCC(=O)NCc1ccc(C(F)(F)F)cc1 [Compound 5g, 3-Chloro-2-methyl-N-(2-oxo-2-((4-(trifluoromethyl)benzyl)amino)ethyl)benzamide] |  | 88% |  | 88% | 13 ± 1 µM | 
8 | improved water solubility | COc1cc(CNC(=O)CNC(=O)c2cccc(Cl)c2C)ccc1O [Compound 5h, 3-Chloro-N-(2-((4-hydroxy-3-methoxybenzyl)amino)-2-oxoethyl)-2-methylbenzamide] |  | 100% |  | 100% | 10 ± 2 µM | 
9 |  | Cc1c(Cl)cccc1C(=O)NCC(=O)NCc1cccc(C(F)(F)F)c1 [Compound 5i, 3-Chloro-2-methyl-N-(2-oxo-2-((3-(trifluoromethyl)benzyl)amino)ethyl)benzamide] |  | 46% |  | 46% | 32 ± 7 µM | 
10 |  | O=C(CNC(=O)c1ccccc1)NCc1ccc(C(F)(F)F)cc1 [Compound 5j, N-(2-Oxo-2-((4-(trifluoromethyl)benzyl)amino)ethyl)benzamide] |  | 35% | 43 ± 11 µM | 35% |  | 
11 |  | CCc1ccc(C(=O)NCC(=O)NCc2ccc(C(F)(F)F)cc2)cc1 [Compound 5k, 4-Ethyl-N-(2-oxo-2-((4-(trifluoromethyl)benzyl)amino)ethyl)benzamide] |  | 42% | 45 ± 8 µM | 42% |  | 
12 |  | O=C(CNC(=O)c1ccc(F)cc1)NCc1ccc(C(F)(F)F)cc1 [Compound 5l, 4-fluoro-N-(2-oxo-2-((4-(trifluoromethyl)benzyl)amino)ethyl)benzamide] |  | 12% |  | 12% | 41 ± 6 µM | 
13 | improved water solubility | O=C(CNC(=O)c1cccc(O)c1)NCc1ccc(C(F)(F)F)cc1 [Compound 5m, 3-Hydroxy-N-(2-oxo-2-((4-(trifluoromethyl)benzyl)amino)ethyl)benzamide] |  | 100% |  | 100% | 0.1 µM | 
14 |  | COc1cc(CNC(=O)CNC(=O)c2cccc(O)c2)ccc1O [Compound 5n, 3-Hydroxy-N-(2-((4-hydroxy-3-methoxybenzyl)amino)-2-oxoethyl)benzamide] |  |  |  | 30% | 65 ± 8 µM | significantly compromised activity
15 |  | COc1cc(C(=O)NCC(=O)NCc2ccc(C(F)(F)F)cc2)ccc1O [Compound 5o, 4-hydroxy-3-methoxy-N-(2-oxo-2-((4-(trifluoromethyl)benzyl)amino)ethyl)benzamide] |  |  |  | 43% | 29 ± 6 µM | significantly compromised activity
16 |  | Cc1c(Cl)cccc1C(=O)NC(C)C(=O)NCc1ccc(C(F)(F)F)cc1 (stereo not drawn) [Compound 5p, 3-Chloro-2-methyl-N-(1-oxo-1-((4-(trifluoromethyl)benzyl)amino)propan-2-yl)benzamide] |  |  |  | 34% | 63 ± 4 µM | significantly less or not active
17 |  | Cc1c(Cl)cccc1C(=O)NC(Cc1ccc(O)cc1)C(=O)NCc1ccc(C(F)(F)F)cc1 (stereo not drawn) [Compound 5q, 3-Chloro-N-(3-(4-hydroxyphenyl)-1-oxo-1-((4-(trifluoromethyl)benzyl)amino)propan-2-yl)-2-methylbenzamide] |  | Cytotoxic |  |  |  | significantly less or not active

Row | SMILES | aqueous solubility (turbidimetric, in words) [1] | protective activity for pancreatic β-cells against ER stress (previously shown) (pancreatic β-cells) | Max Activity (%) (INS-1 cells) | EC50 (INS-1 cells; INS-1 cells with Tm 0.15 μg/mL) | Emax (INS-1 cells; Rattus norvegicus) | EC50 (INS-1 cells; [2]) | β-cell protective activity against Tm (in words) (INS-1 cells)
18 | Cc1ccc(C)c(NC(=O)c2nnn(-c3cccc(Cl)c3C)c2C)c1 [Compound 1, 1-(3-chloro-2-methylphenyl)-N-(2,5-dimethylphenyl)-5-methyl-1H-1,2,3-triazole-4-carboxamide, reference compound] | sub-optimal aqueous solubility; also recorded: poor water solubility | protective activity |  |  |  |  | 
